The target in the assay is rhSYK (Homo sapiens, UniProt P43405). The experiment in a line: biochemical.

Some results are limits rather than exact numbers.

On to `Cc1cc(Nc2nccc(C(F)(F)F)n2)cc(-c2cnc(C3(O)CCC(C(N)=O)C3)s2)c1` (single isomer, unassigned) [Example 119-2], for which the IC50 (as a rule, the point on the concentration scale where inhibition reaches its midpoint) was under 100 nM.

The compound `Cc1cc(Nc2nccc(C)n2)cc(-c2cnc(C3(O)CCC(C(N)=O)C(C)C3)s2)c1` (single isomer, unassigned) [Example 119-5] came in with an IC50 of under 100 nM.

In turn, `Cc1cc(Nc2nccc(C(F)(F)F)n2)cc(-c2cnc(C3(O)CCC(C(N)=O)C(C)C3)s2)c1` (single isomer, unassigned) [Example 119-111] yielded a half-maximal inhibitory concentration (IC50) of under 100 nM.

Compound `Cc1cc(Nc2ncc(F)c(C)n2)cc(-c2cnc(C3(O)CCC4(CC3)OCCO4)s2)c1` [Example 116B-1] returned an IC50 of under 100 nM.

`Cc1cc(Nc2ncc(Cl)c(C)n2)cc(-c2cnc(C3(O)CCC4(CC3)OCCO4)s2)c1` [Example 116B-2] yielded a concentration for half-maximal inhibition (IC50) of under 100 nM.

With `Cc1cc(Nc2nccc(C(F)(F)F)n2)cc(-c2cnc(C3(O)CC(C(N)=O)C3)s2)c1` (stereo not shown) [Example 117-1], the IC50 was under 100 nM.

`Cc1cc(Nc2nccc(C)n2)cc(-c2cnc(C3(O)CCC(C(N)=O)C4CCCCC43)s2)c1` (stereo not shown) [Example 117-2] yielded an IC50 of under 100 nM.

As to `Cc1cc(Nc2nccc(C(F)(F)F)n2)cc(-c2cnc([C@H]3CC[C@@H](C(N)=O)CC3)s2)c1` [Example 117-4], the IC50 is under 100 nM.

Consider `Cc1cc(Nc2nccc(C(F)(F)F)n2)cc(-c2cnc([C@H]3CC[C@H](C(N)=O)CC3)s2)c1` [Example 117-5], for which the IC50 was under 100 nM.

The compound `Cc1cc(Nc2nccc(C(F)(F)F)n2)cc(-c2cnc(C3(O)CCN(c4ncccc4C(N)=O)CC3)s2)c1` [Example 117-6] showed an IC50 of under 100 nM.

With `Cc1cc(Nc2nccc(C(F)(F)F)n2)cc(-c2cnc(C3(O)CCN(CCCC(N)=O)CC3)s2)c1` [Example 117-7], the IC50 is under 100 nM.

`Cc1cc(Nc2nccc(C(F)(F)F)n2)cc(-c2cnc(C3(O)CCC(CC(N)=O)CC3)s2)c1` (stereo not shown) [Example 117-8] displayed a half-inhibitory concentration (IC50) of under 100 nM.

Regarding `Cc1cc(Nc2nccc(C(F)(F)F)n2)cc(-c2cnc([C@]3(O)CC[C@@H](CCC(N)=O)CC3)s2)c1` [Example 117-11], the IC50 was under 100 nM.

`Cc1cc(Nc2nccc(C(F)(F)F)n2)cc(-c2cnc([C@]3(O)CC[C@H](CCC(N)=O)CC3)s2)c1` [Example 117-12] displayed an IC50 of under 100 nM.

Regarding `Cc1cc(Nc2nccc(C(C)C)n2)cc(-c2cnc(C3(O)CCCN(C(=O)CC(N)=O)CC3)s2)c1` (stereo not shown) [Example 117-13], the IC50 is under 100 nM.

Consider `Cc1cc(Nc2nccc(OCCO)n2)cc(-c2cnc(CCC(N)=O)s2)c1` [Example 117-14], for which the IC50 is under 100 nM.

Turning to `CCC(CO)NC(=O)CCc1ncc(-c2cc(C)cc(Nc3nccc(C(F)(F)F)n3)c2)s1` (stereo not shown) [Example 117-15], the IC50 was under 100 nM.

Compound `CCOC(=O)CNC(=O)CCc1ncc(-c2cc(C)cc(Nc3nccc(C(F)(F)F)n3)c2)s1` [Example 117-16] showed an IC50 of under 100 nM.

As to `COC(=O)C(C)NC(=O)CCc1ncc(-c2cc(C)cc(Nc3nccc(C(F)(F)F)n3)c2)s1` (stereo not shown) [Example 117-17], the IC50 is under 100 nM.

Compound `COC(=O)CCNC(=O)CCc1ncc(-c2cc(C)cc(Nc3nccc(C(F)(F)F)n3)c2)s1` [Example 117-18] returned an IC50 of under 100 nM.

Compound `COC(=O)C(CC(C)C)NC(=O)CCc1ncc(-c2cc(C)cc(Nc3nccc(C(F)(F)F)n3)c2)s1` (stereo not shown) [Example 117-19] came in with a half-maximal inhibitory concentration (IC50) of 100 to 1000 nM.

As to `Cc1cc(Nc2nccc(C(F)(F)F)n2)cc(-c2cnc([C@@]3(O)CC[C@H](C(N)=O)C(C)(C)C3)s2)c1Br` [Example 117-22], the IC50 is under 100 nM.

For the compound `Cc1cc(Nc2nccc(C)n2)cc(-c2cnc(C3(O)CCC(C(N)=O)C(C)(C)C3)s2)c1` (stereo not shown) [Example 119-7], the IC50 was under 100 nM.

`Cc1cc(Nc2nccc(C(C)C)n2)cc(-c2cnc([C@]3(O)CC[C@@H](C(N)=O)CC3)s2)c1` [Example 119-8] returned an IC50 of under 100 nM.

For `Cc1cc(Nc2nccc(C(C)(C)C)n2)cc(-c2cnc(C3(O)CCC(C(N)=O)CC3)s2)c1` (stereo not shown) [Example 119-9], the IC50 is under 100 nM.

Consider `Cc1cc(Nc2nccc(C(C)C)n2)cc(-c2cnc(C3(O)CCC(C(N)=O)C(C)C3)s2)c1` (stereo not shown) [Example 119-10], for which the IC50 was under 100 nM.

For the compound `Cc1cc(Nc2nccc(OCCO)n2)cc(-c2cnc(C3(O)CCC(C(N)=O)CC3)s2)c1` (stereo not shown) [Example 119-14], the IC50 is under 100 nM.

`CNC(=O)C1CCC(O)(c2ncc(-c3cc(C)cc(Nc4nccc(C(F)(F)F)n4)c3)s2)CC1` (stereo not shown) [Example 119-15]: the IC50 is under 100 nM.

For the compound `Cc1cc(Nc2nccc(C(F)(F)F)n2)cc(-c2cnc([C@]3(O)CC[C@@H](C(=O)N(C)C)CC3)s2)c1` [Example 119-17], the IC50 was under 100 nM.

The compound `Cc1cc(Nc2nccc(C(F)(F)F)n2)cc(-c2cnc(C3(O)CCC(C(=O)NCC#N)CC3)s2)c1` (stereo not shown) [Example 119-18] showed an IC50 of under 100 nM.

For `Cc1cc(Nc2nccc(C(F)(F)F)n2)cc(-c2cnc([C@]3(O)CC[C@@H](C(=O)N4CCC4)CC3)s2)c1` [Example 119-19], the half-maximal inhibitory concentration (IC50) is under 100 nM.

Turning to `Cc1cc(Nc2nccc(C(F)(F)F)n2)cc(-c2cnc([C@]3(O)CC[C@@H](C(=O)NC(C)C)CC3)s2)c1` [Example 119-20], the IC50 was under 100 nM.

`CCN(C)C(=O)[C@H]1CC[C@](O)(c2ncc(-c3cc(C)cc(Nc4nccc(C(F)(F)F)n4)c3)s2)CC1` [Example 119-21] returned an IC50 of under 100 nM.

Regarding `Cc1cc(Nc2nccc(C(F)(F)F)n2)cc(-c2cnc([C@]3(O)CC[C@@H](C(=O)NCCO)CC3)s2)c1` [Example 119-22], the IC50 was under 100 nM.

Consider `Cc1cc(Nc2nccc(C(F)(F)F)n2)cc(-c2cnc([C@]3(O)CC[C@@H](C(=O)NCC4CC4)CC3)s2)c1` [Example 119-23], for which the half-inhibitory concentration (IC50) is under 100 nM.

`Cc1cc(Nc2nccc(C(F)(F)F)n2)cc(-c2cnc([C@]3(O)CC[C@@H](C(=O)N4CCCC4)CC3)s2)c1` [Example 119-24] showed an IC50 of under 100 nM.

Consider `COCCNC(=O)[C@H]1CC[C@](O)(c2ncc(-c3cc(C)cc(Nc4nccc(C(F)(F)F)n4)c3)s2)CC1` [Example 119-25], for which the IC50 is under 100 nM.

As to `Cc1cc(Nc2nccc(C(F)(F)F)n2)cc(-c2cnc([C@]3(O)CC[C@@H](C(=O)NCC(=O)O)CC3)s2)c1` [Example 119-26], the IC50 is under 100 nM.

In turn, `Cc1cc(Nc2nccc(C(F)(F)F)n2)cc(-c2cnc([C@]3(O)CC[C@@H](C(=O)Nc4ncc[nH]4)CC3)s2)c1` [Example 119-27] yielded an IC50 of under 100 nM.

As for `Cc1cc(Nc2nccc(C(F)(F)F)n2)cc(-c2cnc(C3(O)CCC(C(=O)N(C)CCC#N)CC3)s2)c1` (stereo not shown) [Example 119-28], the IC50 is under 100 nM.

Take `Cc1cc(Nc2nccc(C(F)(F)F)n2)cc(-c2cnc([C@]3(O)CC[C@@H](C(=O)N4CCOCC4)CC3)s2)c1` [Example 119-29]: the IC50 was under 100 nM.

`Cc1cc(Nc2nccc(C(F)(F)F)n2)cc(-c2cnc(C3(O)CCC(C(=O)NCCC(N)=O)CC3)s2)c1` (stereo not shown) [Example 119-30]: the IC50 was under 100 nM.

Compound `COCCCNC(=O)[C@H]1CC[C@](O)(c2ncc(-c3cc(C)cc(Nc4nccc(C(F)(F)F)n4)c3)s2)CC1` [Example 119-31] returned an IC50 of under 100 nM.

With `Cc1cc(Nc2nccc(C(F)(F)F)n2)cc(-c2cnc(C3(O)CCC(C(=O)NCC(O)CO)CC3)s2)c1` (stereo not shown) [Example 119-32], the IC50 is under 100 nM.

The compound `Cc1cc(Nc2nccc(C(F)(F)F)n2)cc(-c2cnc(C3(O)CCC(C(=O)Nc4ccncc4)CC3)s2)c1` (stereo not shown) [Example 119-34] yielded a half-maximal inhibitory concentration (IC50) of under 100 nM.

`Cc1cc(Nc2nccc(C(F)(F)F)n2)cc(-c2cnc([C@]3(O)CC[C@@H](C(=O)Nc4ccccn4)CC3)s2)c1` [Example 119-35] showed an IC50 of under 100 nM.

Consider `Cc1cc(Nc2nccc(C(F)(F)F)n2)cc(-c2cnc([C@]3(O)CC[C@@H](C(=O)Nc4cccnc4)CC3)s2)c1` [Example 119-36], for which the IC50 is under 100 nM.

Compound `Cc1cc(Nc2nccc(C(F)(F)F)n2)cc(-c2cnc(C3(O)CCC(C(=O)N4CCC(C#N)C4)CC3)s2)c1` (stereo not shown) [Example 119-37] displayed an IC50 of under 100 nM.

`Cc1cc(Nc2nccc(C(F)(F)F)n2)cc(-c2cnc(C3(O)CCC(C(=O)NCc4cc[nH]n4)CC3)s2)c1` (stereo not shown) [Example 119-39]: the IC50 is under 100 nM.

`CCN(CCC#N)C(=O)C1CCC(O)(c2ncc(-c3cc(C)cc(Nc4nccc(C(F)(F)F)n4)c3)s2)CC1` (stereo not shown) [Example 119-40] registered an IC50 of under 100 nM.

Consider `Cc1cc(Nc2nccc(C(F)(F)F)n2)cc(-c2cnc(C3(O)CCC(C(=O)NCc4cocn4)CC3)s2)c1` (stereo not shown) [Example 119-42], for which the IC50 was under 100 nM.

As for `Cc1cc(Nc2nccc(C(F)(F)F)n2)cc(-c2cnc(C3(O)CCC(C(=O)NC4CCCCC4)CC3)s2)c1` (stereo not shown) [Example 119-44], the IC50 was under 100 nM.

In turn, `Cc1cc(Nc2nccc(C(F)(F)F)n2)cc(-c2cnc([C@]3(O)CC[C@@H](C(=O)N4CCN(C)CC4)CC3)s2)c1` [Example 119-46] displayed an IC50 of under 100 nM.

In turn, `Cc1cc(Nc2nccc(C(F)(F)F)n2)cc(-c2cnc([C@]3(O)CC[C@@H](C(=O)N4CCC(O)CC4)CC3)s2)c1` [Example 119-47] yielded an IC50 of under 100 nM.

The compound `CC(=O)NCCNC(=O)[C@H]1CC[C@](O)(c2ncc(-c3cc(C)cc(Nc4nccc(C(F)(F)F)n4)c3)s2)CC1` [Example 119-49] yielded an IC50 of under 100 nM.

For the compound `Cc1cc(Nc2nccc(C(F)(F)F)n2)cc(-c2cnc([C@]3(O)CC[C@@H](C(=O)N(CCO)CCO)CC3)s2)c1` [Example 119-50], the IC50 is under 100 nM.

Compound `Cc1cc(Nc2nccc(C(F)(F)F)n2)cc(-c2cnc([C@]3(O)CC[C@@H](C(=O)NCc4ccccc4)CC3)s2)c1` [Example 119-51] yielded an IC50 of under 100 nM.

In turn, `Cc1cc(Nc2nccc(C(F)(F)F)n2)cc(-c2cnc([C@]3(O)CC[C@@H](C(=O)NCc4ccccn4)CC3)s2)c1` [Example 119-54] gave a 50% inhibitory concentration (IC50) of under 100 nM.

`Cc1cc(Nc2nccc(C(F)(F)F)n2)cc(-c2cnc([C@]3(O)CC[C@@H](C(=O)Nc4ccc(O)cc4)CC3)s2)c1` [Example 119-55] came in with an IC50 of under 100 nM.

Consider `Cc1cc(Nc2nccc(C(F)(F)F)n2)cc(-c2cnc([C@]3(O)CC[C@@H](C(=O)Nc4ccccc4O)CC3)s2)c1` [Example 119-56], for which the IC50 is under 100 nM.

The compound `Cc1cc(Nc2nccc(C(F)(F)F)n2)cc(-c2cnc(C3(O)CCC(C(=O)N4CCC(C#N)CC4)CC3)s2)c1` (stereo not shown) [Example 119-59] showed an IC50 of under 100 nM.

For the origin of these results see US8551984B2, “Aminopyrimidines as SYK inhibitors” (Merck Sharp & Dohme Corp., priority 2009, dated 2013).
